Source: PMC2267855, “Site-directed mutagenesis of Arginine282 suggests how protons and peptides are co-transported by rabbit PepT1” (The International Journal of Biochemistry & Cell Biology, 2008)
Where a chain is given by its changes, count along the chain named. Where a SMILES comes first, the peptide text is derived from it.

What was measured:
R282D-PepT1 = biological target: T1, R282D-PepT1 (Oryctolagus cuniculus, UniProt P36836, R282D); experiment: Inhibition of [3H]-D-Phe-L-Gln uptake into Xenopus oocytes expressing R282D-PepT1 (competition, Ki); format: cell-based, rabbit; details: pHout 5.5, 0.4 μM [3H]-D-Phe-L-Gln
T1 construct: expressed in transfected cells; host or cells: Xenopus laevis oocytes injected with cRNA
T1 sequence (P36836 1-707 R282D): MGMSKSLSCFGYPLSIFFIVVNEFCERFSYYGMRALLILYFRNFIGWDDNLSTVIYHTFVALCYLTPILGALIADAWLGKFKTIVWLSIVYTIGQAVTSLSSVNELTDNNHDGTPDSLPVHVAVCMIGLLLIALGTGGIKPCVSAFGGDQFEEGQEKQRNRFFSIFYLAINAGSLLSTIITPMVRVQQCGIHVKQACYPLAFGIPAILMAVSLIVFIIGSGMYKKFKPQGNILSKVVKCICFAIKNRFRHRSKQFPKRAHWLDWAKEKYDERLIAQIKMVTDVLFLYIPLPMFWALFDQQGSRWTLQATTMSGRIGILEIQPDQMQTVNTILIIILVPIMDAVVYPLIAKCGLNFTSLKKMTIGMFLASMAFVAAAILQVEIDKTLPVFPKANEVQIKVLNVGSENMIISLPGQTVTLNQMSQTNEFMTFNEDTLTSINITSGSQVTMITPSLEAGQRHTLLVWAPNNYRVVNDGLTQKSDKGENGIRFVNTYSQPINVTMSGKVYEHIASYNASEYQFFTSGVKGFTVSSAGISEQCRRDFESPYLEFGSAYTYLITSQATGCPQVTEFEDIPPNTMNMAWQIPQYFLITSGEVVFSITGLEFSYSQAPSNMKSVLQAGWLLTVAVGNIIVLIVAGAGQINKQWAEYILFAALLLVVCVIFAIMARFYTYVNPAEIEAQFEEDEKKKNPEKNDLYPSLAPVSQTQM
Method: (§1) Zero-trans uptake of [^3H]-D-Phe-L-Gln (17.4 Ci/mmole, custom synthesised, Cambridge Research Biochemicals, Stockton-on-Tees, UK) was performed as previously described ([Meredith, 2004]). Briefly, 5 oocytes were incubated in 100 μl of uptake medium (95 mM NaCl, 2 mM KCl, 1 mM CaCl2, 0.42 mM MgCl2, 10 mM Tris/Hepes pH 7.4 or Tris/Mes pH 5.5) with tracer (0.4 μM) [^3H]-D-Phe-L-Gln. After incubation, the oocytes were washed sequentially five times in 1 ml of ice-cold 120 mM NaCl solution, lysed individually with 100 μl 2% (w/v) SDS and liquid scintillation counted. As a control non-injected oocytes were also incubated in uptake medium with [^3H]-D-Phe-L-Gln as above.
(§2) The affinity of wild-type and mutant PepT1 were assessed by competition studies with 0.4 μM [^3H]-D-Phe-L-Gln and Gly-L-Gln present in the uptake medium in concentrations from 0 to 2 mM using the protocol above, and the Ki calculated using the method of [Deves and Boyd (1989)].

R282Q-PepT1 = biological target: T2, R282Q-PepT1 (Oryctolagus cuniculus, UniProt P36836, R282Q); experiment: Inhibition of [3H]-D-Phe-L-Gln uptake into Xenopus oocytes expressing R282Q-PepT1 (competition, Ki); format: cell-based, rabbit; details: pHout 5.5, 0.4 μM [3H]-D-Phe-L-Gln
T2 construct: expressed in transfected cells; host or cells: Xenopus laevis oocytes injected with cRNA
T2 sequence (P36836 1-707 R282Q): T1 sequence (P36836 1-707 R282D) with D282Q
Method: as §1, §2

`NCC(=O)N[C@@H](CCC(N)=O)C(=O)O` [Gly-L-Gln] (H-Gly-Gln-OH) gave a Ki (R282D-PepT1) of 340 ± 270 µM and a Ki (R282Q-PepT1) of 460 ± 220 µM.
